Among the data in patent publication US11952365B2, “Anti-viral compounds” (Aligos Therapeutics, Inc., priority 2020, dated 2024) are IC50, EC50 and CC50 values, retold here.

One data set concerns the target T1, human cathepsin L (Homo sapiens, UniProt P07711).
T1 construct: purchased R&D Systems
The experiment in a line: cathepsin L assay. Format: biochemical. The following applies: 10 pM human cathepsin L, Z-FR-AMC 2 μM, class symbols. In a few lines: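 Human cathepsin L at 10 pM was preincubated 30 min with compound, then reaction started with Z-FR-AMC (2 μM final). Fluorescence (355/460 nm) read every 2 min for 30 min; IC50 from four-parameter curve fit.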

The target of a further data set is HRV3C (Human rhinovirus 14, UniProt P03303). The experiment in a line: HRV3C protease assay (duplex, SAMDI-MS). The format is biochemical, HRV. The following applies: 30 mins preincubation. In a few lines:
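Steps: enzymes (HRV3C plus 3CLpro) and compound preincubated 30 min; two peptide substrates added; 30 min reaction at ambient temperature; formic acid quench; SAMDI capture and reflector-positive TOF analysis. Product quantified against internal standard peptides. IC50 by four-parameter equation.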

Data set [1] concerns SARS-CoV-2-GHB-03021/2020. The experiment in a line: SARS-CoV-2 Infection Model in Huh7 Cells. The following applies: Severe acute respiratory syndrome coronavirus 2, Huh-7, 96 h, SARS-CoV-2, day 4 p.i., MTS. Format: cell-based.
The test system of data set [2] is human beta-coronavirus OC43. Briefly: microbe, parasite or virus in culture. The format is cell-based. The following applies: Betacoronavirus 1, OC43, HeLa, 144 h, OC43 in HeLa cells, 6 days at 33° C., read-out: EC50.
The nature of data set [3]: in vitro. Particulars: human.
A further data set deals with 3CLpro (Severe acute respiratory syndrome coronavirus 2, UniProt P0DTD1). Briefly: SARS-CoV-2 3CLpro protease assay (duplex, SAMDI-MS). The format is biochemical. Set-up: For the duplex assay, 3CLpro and HRV3C was added. Particulars: 30 mins preincubation, class symbols.
Data set [4] in a line: in vitro. Particulars: African green monkey, VeroE6 + CP (CC50), Vero E6-eGFP cells with CP-100356, absence of virus, MTS; numeric bounds.
Data set [5] relates to SARS-CoV-2-GHB-03021/2020. Briefly: microbe, parasite or virus in culture. Format: cell-based. Particulars: Severe acute respiratory syndrome coronavirus 2, Vero C1008, 96 h; read-out: VeroE6 + CP (EC50).
The nature of data set [6]: Cytotoxicity plates without OC43 virus (cell-titer-glo). The format is cell-based, human. The following applies: human; HeLa cells without OC43 virus, class symbols. Summed up: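 HeLa cells seeded overnight, then treated with serially diluted compounds in 2% FBS EMEM, uninfected, in parallel with the OC43 antiviral plates. Incubated 6 days at 33 °C; viability read by CellTiter-Glo luminescence.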

The mark [7] stands for this setting: HRV3C, bound, read-out: HRV IC50.
Setting [8] is: 3CLpro, read-out: SARS-Cov-2 IC50.
The mark [9] stands for this setting: HRV3C, class symbols, read-out: HRV IC50.

pEC50, pIC50: −log10 of the molar value. Where two headings read alike, the source gives them in different places.

In the case of `COc1cccc2[nH]c(C(=O)N3C[C@@H]4CCC[C@@H]4[C@H]3C(=O)N[C@@H](CN3CC[C@H](O)C3=O)C(=O)C(=O)NC3CC3)cc12` [Compound 115, (1S,3aR,6aS)—N—((S)-4-(cyclopropylamino)-1-((S)-3-hydroxy-2-oxopyrrolidin-1-yl)-3,4-dioxobutan-2-yl)-2-(4-methoxy-1H-indole-2-carbonyl)octahydrocyclopenta[c]pyrrole-1-carboxamide], the pIC50 against human cathepsin L is ≤ 5.00; on HRV3C (setting [7]), < 5.00; at 3CLpro (setting [8]), 4.70 to 5.70. In addition, the negative-log EC50 (pEC50) in data set [1] (numeric bounds) was < 4.30; in [2] (bound), < 5.00; in data set [5], < 4.30. Further, the figures for the CC50 in “in vitro [3]” and in the data set “in vitro [4]” were > 10 µM and > 50 µM, respectively. The CC50 at 6 days in data set [6] is > 10 µM.

Consider `Cn1c(C(=O)N2CCC3(CC3)C[C@H]2C(=O)N[C@@H](C[C@@H]2CCNC2=O)C(=O)C(=O)NC2CC2)cc2ccccc21` [Compound 172], for which the pIC50 at human cathepsin L is 5.00 to 6.00; at HRV3C (setting [9]), 4.70 to 5.70; on 3CLpro (setting [8]) it was > 7.70. The values for the pEC50 in [1] (class symbols), in [2] (class symbols) and in [5] were > 6.00, 5.00 to 6.00 and > 6.00, respectively. Also, the results for the CC50 in the data set “in vitro [3]” and in the data set “in vitro [4]” were > 10 µM and > 50 µM, respectively. Also, the CC50 at 6 days in data set [6] is > 10 µM.

Regarding `COc1cccc2[nH]c(C(=O)N3C[C@@H]4CCC[C@@H]4[C@H]3C(=O)N[C@@H](C[C@@H]3CCNC3=O)C(=O)COCc3ccccc3)cc12` [Compound 27A, (1S,3aR,6aS)—N-[(2S)-4-(benzyloxy)-3-oxo-1-[(3S)-2-oxopyrrolidin-3-yl]butan-2-yl]-2-(4-methoxy-1H-indole-2-carbonyl)-hexahydro-1H-cyclopenta[c]pyrrole-1-carboxamide], the negative-log IC50 (pIC50) was ≤ 5.00 against human cathepsin L, 4.70 to 5.70 on HRV3C (setting [9]) and 6.70 to 7.70 at 3CLpro (setting [8]). Also, the pEC50 in [1] (class symbols) was 5.00 to 6.00; in data set [2] (class symbols), > 7.00; in [5], 5.00 to 6.00. Further, the CC50 in “in vitro [3]” is > 10 µM; in the data set “in vitro [4]”, > 100 µM. Further, the CC50 at 6 days in [6] is > 10 µM.

Regarding `O=C[C@H](C[C@@H]1CCCNC1=O)NC(=O)[C@@H]1[C@H]2CCC[C@H]2CN1C(=O)c1cc2ccccc2[nH]1` [Compound 15, (1S,3aR,6aS)-2-(1H-indole-2-carbonyl)-N—((S)-1-oxo-3-((S)-2-oxopiperidin-3-yl)propan-2-yl)octahydrocyclopenta[c]pyrrole-1-carboxamide], the values for the pIC50 on human cathepsin L, at HRV3C (setting [9]) and on 3CLpro (setting [8]) were 5.00 to 6.00, 6.70 to 7.70 and > 7.70, respectively. In addition, the results for the pEC50 in data set [1] (class symbols), in [2] (class symbols) and in [5] were 5.00 to 6.00, 6.00 to 7.00 and 5.00 to 6.00, respectively. In addition, the CC50 in “in vitro [3]” and in “in vitro [4]” was > 100 µM in each case. Moreover, the CC50 at 6 days in [6] is > 10 µM.

Regarding `O=C(c1ccccc1)c1c[nH]c(C(=O)N2C[C@@H]3CCC[C@@H]3[C@H]2C(=O)N[C@@H](C[C@@H]2CCNC2=O)C(=O)CO)c1` [Compound 84, (1S,3aR,6aS)-2-(4-benzoyl-1H-pyrrole-2-carbonyl)-N-[(2S)-4-hydroxy-3-oxo-1-[(3S)-2-oxopyrrolidin-3-yl]butan-2-yl]-hexahydro-1H-cyclopenta[c]pyrrole-1-carboxamide], the pIC50 on human cathepsin L was ≤ 5.00; on HRV3C (setting [9]), 4.70 to 5.70; on 3CLpro (setting [8]), 6.70 to 7.70. Besides, the pEC50 in data set [1] (numeric bounds) is < 4.30; in data set [2] (class symbols), 5.00 to 6.00; in data set [5], 5.00 to 6.00. In addition, the CC50 in “in vitro [3]” and in the data set “in vitro [4]” was > 50 µM each time. Also, the CC50 at 6 days in [6] is > 10 µM.

In the case of `COc1cccc2[nH]c(C(=O)N3C[C@@H]4CCC[C@@H]4[C@H]3C(=O)N[C@@H](C[C@@H]3CCNC3=O)C(=O)COP(=O)(O)O)cc12` [Compound 61, (3S)-3-1{[(1S,3aR,6aS)-2-(4-methoxy-1H-indole-2-carbonyl)-hexahydro-1H-cyclopenta[c]pyrrol-1-yl]formamido}-2-oxo-4-[(3S)-2-oxopyrrolidin-3-yl]butoxyphosphonic acid], the pIC50 at human cathepsin L is ≤ 5.00; on HRV3C (setting [7]), < 5.00; at 3CLpro (setting [8]), 5.70 to 6.70. The pEC50 in [1] (class symbols) was 5.00 to 6.00; in [2] (class symbols) it was 6.00 to 7.00; in data set [5], 5.00 to 6.00. Further, the CC50 in the data set “in vitro [3]” and in the data set “in vitro [4]” was > 100 µM in each case. Further, in data set [6], the CC50 at 6 days was > 10 µM.

With `COc1cccc2[nH]c(C(=O)N3C[C@H](c4ccccc4)C[C@H]3C(=O)N[C@@H](C[C@@H]3CCNC3=O)C(=O)CO)cc12` [Compound 32], the results for the pIC50 at human cathepsin L, at HRV3C (setting [9]) and at 3CLpro (setting [8]) were ≤ 5.00, 5.70 to 6.70 and 6.70 to 7.70, respectively. Further, the pEC50 in [1] (class symbols) was 5.00 to 6.00; in data set [2] (class symbols), 6.00 to 7.00; in [5], 5.00 to 6.00. The CC50 in “in vitro [3]” and in “in vitro [4]” was > 100 µM throughout. Further, in [6], the CC50 at 6 days is > 10 µM.

In the case of `O=C1NCC[C@H]1C[C@H](NC(=O)[C@@H]1[C@H]2CCC[C@H]2CN1C(=O)c1cc2c(Oc3ccccc3)cccc2[nH]1)C(=O)CO` [Compound 123, (1S,3aR,6aS)—N-[(2S)-4-hydroxy-3-oxo-1-[(3S)-2-oxopyrrolidin-3-yl]butan-2-yl]-2-(4-phenoxy-1H-indole-2-carbonyl)-hexahydro-1H-cyclopenta[c]pyrrole-1-carboxamide], the pIC50 on human cathepsin L is ≤ 5.00; on HRV3C (setting [7]), < 5.00; on 3CLpro (setting [8]) it was 6.70 to 7.70. For the same molecule, the pEC50 was 5.00 to 6.00 in data set [1] (class symbols), 6.00 to 7.00 in data set [2] (class symbols) and 5.00 to 6.00 in [5]. Besides, the CC50 in the data set “in vitro [3]” and in “in vitro [4]” was > 50 µM in each case. Further, the CC50 at 6 days in data set [6] was > 10 µM.

On to `COCCNC(=O)C(=O)[C@H](C[C@@H]1CCNC1=O)NC(=O)[C@@H]1[C@H]2CCC[C@H]2CN1C(=O)c1cc2c(OC)cccc2[nH]1` [Compound 100, (1S,3aR,6aS)-2-(4-methoxy-1H-indole-2-carbonyl)-N—((S)-4-((2-methoxyethyl)amino)-3,4-dioxo-1-((S)-2-oxopyrrolidin-3-yl)butan-2-yl)octahydrocyclopenta[c]pyrrole-1-carboxamide], for which the negative logarithm of the IC50 (pIC50) against human cathepsin L is ≤ 5.00; on HRV3C (HRV IC50, HRV3C, class symbols), 5.70 to 6.70; at 3CLpro (SARS-Cov-2 IC50, 3CLpro), 6.70 to 7.70. Moreover, the pEC50 is 4.00 to 5.00 in data set [1] (class symbols), 5.00 to 6.00 in data set [2] (class symbols) and 4.00 to 5.00 in data set [5]. The CC50 in “in vitro [3]” is > 50 µM; in the data set “in vitro [4]” it was > 100 µM. The CC50 at 6 days in data set [6] is > 10 µM.

As for `COc1cccc2[nH]c(C(=O)N3C[C@H]4[C@@H]([C@H]3C(=O)N[C@@H](C[C@@H]3CCNC3=O)C(=O)CO)C4(C)C)cc12` [Compound 43], the pIC50 at human cathepsin L is ≤ 5.00; against HRV3C (HRV IC50, HRV3C, bound), < 5.00; on 3CLpro (setting [8]), 6.70 to 7.70. Also, the pEC50 in data set [1] (class symbols) is 5.00 to 6.00; in data set [2] (class symbols) it was 6.00 to 7.00; in data set [5], 5.00 to 6.00. Besides, the CC50 in “in vitro [3]” and in “in vitro [4]” was > 100 µM throughout. Besides, the CC50 at 6 days in [6] was > 10 µM.

Turning to `COc1cccc2[nH]c(C(=O)N3CCc4ccccc4[C@H]3C(=O)N[C@@H](C[C@@H]3CCNC3=O)C(=O)CO)cc12` [Compound 106], the values for the pIC50 at human cathepsin L, on HRV3C (setting [9]) and on 3CLpro (setting [8]) were ≤ 5.00, 4.70 to 5.70 and 5.70 to 6.70, respectively. Moreover, the pEC50 in [1] (class symbols) is 4.00 to 5.00; in data set [2] (class symbols) it was 5.00 to 6.00; in [5], 4.00 to 5.00. In addition, the CC50 was > 10 µM in “in vitro [3]” and > 50 µM in “in vitro [4]”. Moreover, the CC50 at 6 days in [6] was > 10 µM.

Take `COc1cccc2[nH]c(C(=O)N3C[C@@H]4CCC[C@@H]4[C@H]3C(=O)N[C@@H](C[C@@H]3CCNC3=O)C(=O)c3nc4ccccc4s3)cc12` [Compound 50, (1S,3aR,6aS)—N-[(2S)-1-(1,3-benzothiazol-2-yl)-1-oxo-3-[(3S)-2-oxopyrrolidin-3-yl]propan-2-yl]-2-(4-methoxy-1H-indole-2-carbonyl)-hexahydro-1H-cyclopenta[c]pyrrole-1-carboxamide]: the pIC50 against human cathepsin L was ≤ 5.00; on HRV3C (setting [7]) it was < 5.00; at 3CLpro (setting [8]), 6.70 to 7.70. In addition, the pEC50 was 5.00 to 6.00 in [1] (class symbols), 6.00 to 7.00 in data set [2] (class symbols) and 5.00 to 6.00 in data set [5]. Also, the CC50 in the data set “in vitro [3]” is > 10 µM; in the data set “in vitro [4]”, > 100 µM. In addition, the CC50 at 6 days in data set [6] was > 10 µM.
